Target: Alpha-2 adrenergic receptor (Homo sapiens)
Experiment: Stimulatory activity against serotonin secretion (SEC).

Row | SMILES | IC50 [µM]
1 | Oc1ccc(C(O)c2ncc[nH]2)cc1O (stereo not drawn) | 437
2 | Oc1cc(CC2=NCCN2)cc(F)c1O | 18.2
3 | Oc1ccc(CC2=NCCN2)c(F)c1O | 15.5

— BindingDB's records for doi:10.1021/jm00166a009 (Ohio State University, 1990)
